# In patent US20170269060A1, “Assays and Compounds to Treat Kidney Diseases” (Rush University Medical Center, priority 2014, published 2017):
# Tested on: murine podocytes
# Assay: Podocyte HCS phenotypic assay, PAN-induced podocyte injury
# Format: cell-based
# Protocol: Conditionally immortalized human and murine podocytes were used in a majority of the assays. Human and murine podocytes were cultured as have been described previously (Saleem et al., JASN 13, 630-638 (2002); Mundel, Reiser et al., Experimental Cell Research, 236, p 248 (1997)). For example, murine podocytes derived from the mouse line H-2Kb-tsA58 were cultured under permissive conditions at 33° C. on rat-tail collagen coated dishes in RPMI medium supplemented with 10% heat inactivated FBS, penicillin and streptomycin (100 U/ml), and 10 U/ml recombinant mouse γ-interferon. Cells were then trypsinized and re-plated for differentiation at 37° C. in medium without γ-interferon. The cells were differentiated for 0 to 7 days and then reseeded to rat-tail collagen coated multi-well plates at a density of 1500/well or 500/well for 96 and 384 well plates, respectively. Cells were then further differentiated for another 5-14 days in the multi-well plates for subsequent experimentation with various reagents prior to fixation and analyses.
# In some embodiments, podocytes were cultured at 37° C. for the first 7 days of differentiation in large tissue culture flasks and subsequently reseeded and further cultured at 37° C. in the 96-well assay plates for the next 4-6 days to provide low well-to-well variability in cell number in the assay plates and healthy podocytes expressing specific and well characterized podocyte markers synaptopodin and podocin.
# Differentiated podocytes were cultured in 96-well or 384-well multiwall optical plates (PerkinElmer, Boston, Mass.). In some embodiments, differentiated podocytes were treated with various amounts of puromycin aminonucleoside (PAN), […] LPS, Adriamycin and other agents. In some embodiments, the cells were co-treated with chemical and other agents (such as mizouribine) to prevent damage from damaging agents (such as PAN). In other embodiments, the rescue agents were added 0-48 h after the addition of injury causing agents. In some embodiments, patient samples such as blood, serum, urine or other samples were added to differentiated podocytes to identify disease causing agents. In some embodiments, primary, differentiated patient podocytes were cultured to identify defects in structure and/or function.
# After culturing for the appropriate time and treatment or control, cultured podocytes in multi-well optical plates were rinsed with phosphate buffered saline (PBS) and subsequently fixed using a solution of paraformaldehyde and sucrose in PBS (at a final concentration of 4% paraformaldehyde and 2% sucrose in PBS) for 30 min at room temperature. Following fixation, the cells were permeabilization using a solution of 0.3% Triton X-100 in PBS for 15 min at room temperature. For visualization of filamentous-actin (F-Actin) in cells, cells were stained with a solution of Alexa fluor 568 phalloidin (Invitrogen), as previously described. HCS CellMask Blue (Invitrogen) was used as a fluorescent stain for visualizing nuclei, cytoplasm and the individual cell boundaries. Additional proteins that were fluorescently labeled and analyzed using appropriate primary mAbs include synaptopodin (synpo, primary mAb from Santa Cruz), Paxillin (primary mAb clone Y113 from Millipore) for quantitation of focal adhesions, beta1 integrin, podocin, WT1 nephrin, CD2-AP may also be used. Other proteins may also be used for labeling. Appropriate secondary antibodies (fluorescently labeled) were used for fluorescent visualizations. High throughput confocal microscopy was done using the Opera LX (Perkin Elmer) with filters and exposure times according to manufacturer's instructions and as described before. Images were used in subsequent image analysis for quantitation of a variety of cellular parameters. Assays were performed in replicate wells for assay robustness.
# Images for each frame of each well in multiple fluorescent channels were acquired using OPERA imaging system. […]
smiles,measurement,setting,value
O=S(=O)(NCC1CC1)c1ccc(Nc2nccc(N3CCCc4cc(O)ccc43)n2)cc1 [Pyrintegrin],"prevention of PAN induced injury, dose-response of percent damaged cells (FIG. 4A-4P)","30 ug/ml PAN, co-treatment, multi-parameter algorithm",prevented PAN induced injury
same,EC50,"PAN 16 μg/ml, 48 hours, F-actin fibers per cell (FIG. 8), read-out: apparent half-maximal effective concentration (EC50), protection from PAN-induced damage",800 nM
same,dose-dependent protection of podocytes from PAN-induced injury,"PAN 16-30 μg/ml, 48 hours, F-actin fibers and other parameters",dose dependently protected
same,loss of actin stress fibers and focal adhesion complexes on PAN-induced injury,PAN cotreatment (FIG. 9B),protected podocytes from the loss of actin stress fibers and focal adhesion complexes
same,actin stress fibers in healthy cells,"healthy cells, no PAN",small but significant increase in actin stress fibers
